{
  "source": "the supplement of paper PMC10307832",
  "assay_in_all_cases": "relative viability (nuclei count vs DMSO), 5 days (fraction); higher = more cells survive",
  "key": {"AT9283 + Decitabine": {"compound": "O=C(Nc1c[nH]nc1-c1nc2ccc(CN3CCOCC3)cc2[nH]1)NC1CC1 [AT9283] + Nc1ncn([C@H]2C[C@H](O)[C@@H](CO)O2)c(=O)n1 [Decitabine] (partner 2 µM)", "outline": "(§1)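 For relative viability, nuclei counts in treated wells were divided by those in vehicle wells. Lung cancer cell lines had been pin-tool dosed in 1536-well plates the day after seeding and cultured for 5 days, then fixed and stained in one step (final 0.05% Triton X-100, 1% formaldehyde, 1 ug/ml Hoechst) and imaged at 4×. Doses were one drug alone or a fixed anchor-drug dose plus five library-drug doses (not always all listed) in √10 steps, and values are duplicate-plate medians.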"}, "AT9283 + Trametinib": {"compound": "O=C(Nc1c[nH]nc1-c1nc2ccc(CN3CCOCC3)cc2[nH]1)NC1CC1 [AT9283] + CC(=O)Nc1cccc(-n2c(=O)n(C3CC3)c(=O)c3c(Nc4ccc(I)cc4F)n(C)c(=O)c(C)c32)c1 [Trametinib] (partner 0.02 µM)", "outline": "as §1"}, "AT9283 + Linsitinib": {"compound": "O=C(Nc1c[nH]nc1-c1nc2ccc(CN3CCOCC3)cc2[nH]1)NC1CC1 [AT9283] + C[C@]1(O)C[C@@H](c2nc(-c3ccc4ccc(-c5ccccc5)nc4c3)c3c(N)nccn32)C1 [Linsitinib] (partner 1 µM)", "outline": "as §1"}, "Erlotinib + Trametinib": {"compound": "C#Cc1cccc(Nc2ncnc3cc(OCCOC)c(OCCOC)cc23)c1 [Erlotinib] + CC(=O)Nc1cccc(-n2c(=O)n(C3CC3)c(=O)c3c(Nc4ccc(I)cc4F)n(C)c(=O)c(C)c32)c1 [Trametinib] (partner 0.02 µM)", "outline": "as §1"}, "Erlotinib + Pictilisib": {"compound": "C#Cc1cccc(Nc2ncnc3cc(OCCOC)c(OCCOC)cc23)c1 [Erlotinib] + CS(=O)(=O)N1CCN(Cc2cc3nc(-c4cccc5[nH]ncc45)nc(N4CCOCC4)c3s2)CC1 [Pictilisib] (partner 1 µM)", "outline": "as §1"}},
  "data": [
    {"cell line": "NCI-H441", "values": [
      {"measurement": "relative viability", "setting": "AT9283 + Decitabine; first compound 0.003 µM", "result": 0.245},
      {"measurement": "relative viability", "setting": "AT9283 + Decitabine; first compound 0.03 µM", "result": 0.281},
      {"measurement": "relative viability", "setting": "AT9283 + Decitabine; first compound 0.09487 µM", "result": 0.202},
      {"measurement": "relative viability", "setting": "AT9283 + Decitabine; first compound 0.3 µM", "result": 0.217},
      {"measurement": "relative viability", "setting": "AT9283 + Trametinib; first compound 0.003 µM", "result": 0.259},
      {"measurement": "relative viability", "setting": "AT9283 + Trametinib; first compound 0.03 µM", "result": 0.439},
      {"measurement": "relative viability", "setting": "AT9283 + Trametinib; first compound 0.09487 µM", "result": 0.423},
      {"measurement": "relative viability", "setting": "AT9283 + Trametinib; first compound 0.3 µM", "result": 0.22},
      {"measurement": "relative viability", "setting": "AT9283 + Linsitinib; first compound 0.003 µM", "result": 0.535},
      {"measurement": "relative viability", "setting": "AT9283 + Linsitinib; first compound 0.03 µM", "result": 0.474},
      {"measurement": "relative viability", "setting": "AT9283 + Linsitinib; first compound 0.09487 µM", "result": 0.142},
      {"measurement": "relative viability", "setting": "AT9283 + Linsitinib; first compound 0.3 µM", "result": 0.165},
      {"measurement": "relative viability", "setting": "Erlotinib + Trametinib; first compound 0.02 µM", "result": 0.457},
      {"measurement": "relative viability", "setting": "Erlotinib + Trametinib; first compound 0.6325 µM", "result": 0.442},
      {"measurement": "relative viability", "setting": "Erlotinib + Trametinib; first compound 2 µM", "result": 0.328},
      {"measurement": "relative viability", "setting": "Erlotinib + Pictilisib; first compound 0.02 µM", "result": 0.448},
      {"measurement": "relative viability", "setting": "Erlotinib + Pictilisib; first compound 0.2 µM", "result": 0.495},
      {"measurement": "relative viability", "setting": "Erlotinib + Pictilisib; first compound 0.6325 µM", "result": 0.393},
      {"measurement": "relative viability", "setting": "Erlotinib + Pictilisib; first compound 2 µM", "result": 0.392}
    ]}
  ]
}
